The values that follow come from patent US20110263593A1, “NOVEL IMIDAZO[1,2-a]PYRIMIDINE DERIVATIVES, METHOD FOR THE PREPARATION THEREOF, USE THEREOF AS MEDICAMENTS, PHARMACEUTICAL COMPOSITIONS AND NOVEL USE, IN PARTICULAR AS MET INHIBITORS” (sanofi-aventis, priority 2008, published 2011).

Data set [1] relates to HCT116 cells and MKN45 cells. Nature of the data set: Test C: measurement of cell proliferation by 14C-thymidine pulse. Type of data set: cell-based. Particulars: 14C-thymidine incorporation, 96 h of treatment; cell line not stated (HCT116 and MKN45 in method). The method, then:
C) Test C: Measurement of cell proliferation by ^14C-thymidine pulse
The cells are seeded into Cytostar 96-well plates in 180 μl for 4 hours at 37° C. and 5% CO2: HCT116 cells at a rate of 2500 cells per well in DMEM medium+10% foetal calf serum+1% L-glutamine and MKN45 cells at a rate of 7500 cells per well in RPMI medium+10% foetal calf serum+1% L-glutamine. After these 4 hours of incubation, the products are added in 10 μl as a 20-fold concentrated solution according to the dilution method mentioned for the ELISA. The products are tested at 10 concentrations in duplicate from 10 000 nM to 0.3 nM with an increment of 3.
After treatment for 72 h, add 10 μl of ^14C-thymidine at 10 μCi/ml to obtain 0.1 μCi per well. The ^14C-thymidine incorporation is measured on a Micro-Beta machine (Perkin-Elmer) after 24 hours of pulse and 96 h of treatment.
All the stages of the assay are automated on BIOMEK 2000 or TECAN stations.

In data set [2] the target is T1, MET (Homo sapiens, UniProt P08581). Description: Test B: inhibition of the autophosphorylation of MET, ELISA technique (pppY1230, 1234, 1235) in MKN45 cells. Also on record: endogenous in cells; host or cells: MKN45 cells. Particulars: 1 h treatment, phosphoMET ELISA. The class given is cell-based. The method, then:
B) Test B: Inhibition of the Autophosphorylation of MET; ELISA Technique (pppY1230, 1234, 1235)
a) Cell lysates: Seed MKN45 cells into 96-well plates (Cell coat BD polylysine) at 20 000 cells/well in 200 μl in RPMI medium+10% FCS+1% L-glutamine. Leave to adhere for 24 hours in an incubator.
The cells are treated the day after seeding with the products at 6 concentrations in duplicate for 1 h. At least 3 control wells are treated with the same final amount of DMSO.
Product dilution: Stock at 10 mM in pure DMSO—range from 10 mM to 30 μM with an increment of 3 in pure DMSO—intermediate 1/50 dilutions in culture medium and then removal of 10 μl added directly to the cells (200 μl): final range from 10 000 to 30 nM.
At the end of the incubation, carefully remove the supernatant and rinse with 200 μl of PBS. Next, place 100 μl of lysis buffer directly in the wells on ice and incubate at 4° C. for 30 minutes. Lysis buffer: 10 mM Tris HCl, pH 7.4, 100 mM NaCl, 1 mM EDTA, 1 mM EGTA, 1% Triton X-100, 10% glycerol, 0.1% SDS, 0.5% deoxycholate, 20 mM NaF, 2 mM Na3VO4, 1 mM PMSF and cocktail of antiproteases.
The 100 μl of lysates are transferred into a V-bottomed polypropylene plate and the ELISA is performed immediately, or the plate is frozen at −80° C.
b) PhosphoMET ELISA BioSource Kit KH00281
Into each well of the kit plate, add 70 μl of kit dilution buffer+30 μl of cell lysate or 30 μl of lysis buffer for the blanks. Incubate for 2 h with gentle agitation at ambient temperature.
Rinse the wells 4 times with 400 μl of kit washing buffer. Incubate with 100 μl of anti-phospho MET antibody for 1 hour at ambient temperature.
Rinse the wells 4 times with 400 μl of kit washing buffer. Incubate with 100 μl of anti-rabbit HRP antibody for 30 minutes at ambient temperature (except for the wells of chromogen alone).
Rinse the wells 4 times with 400 μl of kit washing buffer. Introduce 100 μl of chromogen and incubate for 30 minutes in the dark at ambient temperature.
Stop the reaction with 100 μl of stop solution. Read without delay at […], 0.1 second on Wallac Victor plate reader.
Target sequence in this assay (P08581 25-1390): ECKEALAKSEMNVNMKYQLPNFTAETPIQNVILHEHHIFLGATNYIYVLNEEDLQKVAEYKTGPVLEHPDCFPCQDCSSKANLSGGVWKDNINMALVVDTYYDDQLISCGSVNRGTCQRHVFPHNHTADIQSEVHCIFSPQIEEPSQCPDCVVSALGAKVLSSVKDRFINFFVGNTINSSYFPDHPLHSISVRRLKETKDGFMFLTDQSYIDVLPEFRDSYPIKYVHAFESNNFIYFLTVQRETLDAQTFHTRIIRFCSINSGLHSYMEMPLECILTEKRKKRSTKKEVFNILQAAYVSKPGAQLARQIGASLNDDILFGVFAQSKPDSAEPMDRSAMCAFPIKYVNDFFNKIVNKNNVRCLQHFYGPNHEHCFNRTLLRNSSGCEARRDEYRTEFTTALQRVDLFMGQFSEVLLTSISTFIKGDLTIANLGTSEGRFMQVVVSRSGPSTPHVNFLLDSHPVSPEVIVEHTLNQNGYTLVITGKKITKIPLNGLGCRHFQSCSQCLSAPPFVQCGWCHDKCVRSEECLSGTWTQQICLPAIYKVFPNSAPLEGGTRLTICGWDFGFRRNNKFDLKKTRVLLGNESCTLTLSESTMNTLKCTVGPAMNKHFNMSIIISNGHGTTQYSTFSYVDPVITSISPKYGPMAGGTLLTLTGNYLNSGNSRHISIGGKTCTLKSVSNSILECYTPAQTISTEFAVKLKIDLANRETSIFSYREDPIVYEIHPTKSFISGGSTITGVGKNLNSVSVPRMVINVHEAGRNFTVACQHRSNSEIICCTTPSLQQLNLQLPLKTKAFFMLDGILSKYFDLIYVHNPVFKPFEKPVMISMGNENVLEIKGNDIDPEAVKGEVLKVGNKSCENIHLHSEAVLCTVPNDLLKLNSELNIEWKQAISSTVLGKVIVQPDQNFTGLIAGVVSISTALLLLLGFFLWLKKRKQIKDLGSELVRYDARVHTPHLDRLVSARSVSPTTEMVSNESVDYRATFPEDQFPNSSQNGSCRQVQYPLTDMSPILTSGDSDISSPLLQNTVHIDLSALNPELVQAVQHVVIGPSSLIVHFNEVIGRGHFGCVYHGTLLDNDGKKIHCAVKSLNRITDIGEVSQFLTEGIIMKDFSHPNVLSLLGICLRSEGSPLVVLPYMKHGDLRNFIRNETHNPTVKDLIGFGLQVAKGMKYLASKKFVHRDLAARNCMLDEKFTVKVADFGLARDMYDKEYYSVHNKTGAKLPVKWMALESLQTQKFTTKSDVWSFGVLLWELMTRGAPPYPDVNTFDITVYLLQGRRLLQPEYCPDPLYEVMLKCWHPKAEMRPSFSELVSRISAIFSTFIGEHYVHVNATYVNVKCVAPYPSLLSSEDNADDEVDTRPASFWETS
On the technique in general: ELISA stands for enzyme-linked immunosorbent assay.

For data set [3], the target named is T1, MET. Description: Test A: HTRF MET assay in 96-well format. Type of data set: biochemical. Also on record: The His-Tev-MET (956-1390) recombinant DNA in pFastBac (Invitrogen) is transfected into insect cells; His (N, cleaved yes); Tev cleavage site (N, cleaved yes); made in house; host or cells: SF21 insect cells (baculovirus, pFastBac). Particulars: 5 nM MET, 10 μM ATP. The method, then:
I) Expression and Purification of MET, Cytoplasmic Domain
The His-Tev-MET (956-1390) recombinant DNA in pFastBac (Invitrogen) is transfected into insect cells and, after several viral amplification stages, the final baculovirus stock is tested for the expression of the protein of interest.
After infection for 72 h at 27° C. with the recombinant virus, the SF21 cell cultures are harvested by centrifugation and the cell pellets are stored at −80° C.
The cell pellets are resuspended in lysis buffer (buffer A [50 mM HEPES, pH 7.5, 250 mM NaCl, 10% glycerol, 1 mM TECP]; + cocktail of protease inhibitors, Roche Diagnostics, without EDTA, ref. 1873580), stirred at 4° C. until the mixture is homogeneous and then lysed mechanically using a “Dounce” type apparatus.
After centrifugation, the lysis supernatant is incubated for 2 h at 4° C. with nickel chelate resin (His-Trap 6 Fast Flow™, GE HealthCare). After washing with 20 volumes of buffer A, the suspension is packed into a column, and the proteins are eluted with a gradient of buffer B (buffer A+290 mM imidazole).
The fractions comprising the protein of interest for the purpose of electrophoretic analysis (SDS PAGE) are combined, concentrated by ultrafiltration (10 kDa cut-off) and injected onto an exclusion chromatography column (Superdex™ 200, GE HealthCare) equilibrated in buffer A.
After enzymatic cleavage of the histidine tag, the protein is reinjected onto a new IMAC nickel chelate chromatography column (His-Trap 6 Fast Flow™, GE HealthCare) equilibrated in buffer A. The fractions eluted with a gradient of buffer B and comprising the protein of interest after electrophoresis (SDS PAGE) are finally combined and conserved at −80° C.
For the production of autophosphorylated protein, the previous fractions are incubated for 1 h at ambient temperature after the addition of 2 mM ATP, 2 mM MgCl2, and 4 mM Na3VO4. After the reaction has been stopped with 5 mM of EDTA, the reaction mixture is injected onto a HiPrep desalifying column (GE HealthCare) preequilibrated in buffer A+4 mM Na3VO4, and the fractions comprising the protein of interest (SDS PAGE analysis) are combined and stored at −80° C. The degree of phosphorylation is verified by mass spectrometry (LC-MS) and by peptide mapping.
A) Test A: HTRF MET Assay in 96-Well Format
MET at a final concentration of 5 nM is incubated in a final volume of 50 μl of enzymatic reaction in the presence of the test molecule (for a final concentration range of from 0.17 nM to 10 μM, 3% DMSO final concentration) in 10 mM MOPS buffer, pH 7.4, 1 mM DTT, 0.01% Tween 20. The reaction is initiated with the substrate solution to obtain final concentrations of 1 μg/ml poly-(GAT), 10 μM ATP and 5 mM MgCl2. After incubation for 10 min at ambient temperature, the reaction is stopped with a 30 μl mix so as to obtain a final solution of 50 mM Hepes, pH 7.5, 500 mM potassium fluoride, 0.1% BSA and 133 mM EDTA in the presence of 80 ng of streptavidin 61SAXLB Cis-Bio Int. and 18 ng of anti-phosphotyrosine Mab PT66-Europium Cryptate per well. After incubation for 2 hours at ambient temperature, the reading is taken at 2 wavelengths, 620 nm and 665 nm, on a reader for the TRACE/HTRF technique and the % inhibition is calculated from the 665/620 ratios.
Target sequence in this assay (P08581 956-1390): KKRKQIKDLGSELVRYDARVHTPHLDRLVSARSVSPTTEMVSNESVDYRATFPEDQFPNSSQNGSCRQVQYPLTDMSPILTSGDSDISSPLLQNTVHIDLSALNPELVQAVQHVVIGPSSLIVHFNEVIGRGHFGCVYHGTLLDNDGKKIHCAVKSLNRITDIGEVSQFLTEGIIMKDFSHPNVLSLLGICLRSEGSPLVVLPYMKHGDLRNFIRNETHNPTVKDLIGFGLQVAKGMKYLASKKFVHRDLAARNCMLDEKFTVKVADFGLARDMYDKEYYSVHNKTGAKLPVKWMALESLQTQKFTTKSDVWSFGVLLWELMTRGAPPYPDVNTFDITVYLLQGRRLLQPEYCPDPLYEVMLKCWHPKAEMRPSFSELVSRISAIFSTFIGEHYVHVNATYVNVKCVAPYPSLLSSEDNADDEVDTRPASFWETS
A general note: TR-FRET usually uses a lanthanide donor and a delayed reading to cut background.

Structures can show the parent of a compound that is named as a salt.

One may read the IC50 as the concentration at which inhibition is half-maximal. Broadly, the melting point is the temperature, or range, at which the solid turns liquid.

With `Nc1nc2ccc(Sc3cnc4ncc(NC5CCCCC5)cn34)cc2s1` [Example 25, 3-[(2-amino-1,3-benzothiazol-6-yl)sulphanyl]-N-cyclohexylimidazo[1,2-a]pyrimidin-6-amine], the IC50 in data set [1] was less than 1 µM; against MET [2] it was less than 0.1 µM; on MET [3], less than 0.1 µM.
Consider `O=C(NCCN1CCCC1)Nc1nc2ccc(Sc3cnc4ncccn34)cc2s1` [Example 5, 1-[6-(imidazo[1,2-a]pyrimidin-3-ylsulphanyl)-1,3-benzothiazol-2-yl]-3-[2-(pyrrolidin-1-yl)ethyl]urea], for which the melting point was greater than 260 °C. For the same compound, in data set [1], the IC50 is less than 1 µM. The compound also registered an IC50 against MET [2] of less than 0.1 µM. The IC50 on MET [3] was less than 0.1 µM.
For the compound `CC(C)(C)OC(=O)NCC(=O)Nc1nc2ccc(Sc3cnc4ncccn34)cc2s1` [Example 11, 2-methylpropan-2-yl(2-{[6-(imidazo[1,2-a]pyrimidin-3-ylsulphanyl)-1,3-benzothiazol-2-yl]amino}-2-oxoethyl)carbamate], the melting point is greater than 260 °C. Also, the 50% inhibitory concentration (IC50) in data set [1] was less than 1 µM. Moreover, the IC50 on MET [2] was less than 0.5 µM. The 50% inhibitory concentration (IC50) on MET [3] is less than 0.1 µM.
Taken in the same sequence, the figures for `O=C(Nc1nc2cc(F)c(Sc3cnc4ncccn34)cc2s1)C1CC1` [Example 18, N-[5-fluoro-6-(imidazo[1,2-a]pyrimidin-3-ylsulphanyl)-1,3-benzothiazol-2-yl]cyclopropanecarboxamide] were greater than 260 °C, less than 1 µM, less than 0.1 µM and less than 0.1 µM.
As for `O=C(Nc1nc2ccc(Sc3cnc4ncc(-c5cccc(F)c5)cn34)cc2s1)C1CC1` [Example 23, N-(6-{[6-(3-fluorophenyl)imidazo[1,2-a]pyrimidin-3-yl]sulphanyl}-1,3-benzothiazol-2-yl)cyclopropanecarboxamide], the IC50 in data set [1] was less than 1 µM; on MET [2], less than 0.1 µM; at MET [3], less than 0.1 µM.
Regarding `CN1CCN(CC(=O)Nc2nc3ccc(Sc4cnc5ncccn45)cc3s2)CC1=O` [Example 21, N-[6-(imidazo[1,2-a]pyrimidin-3-ylsulphanyl)-1,3-benzothiazol-2-yl]-2-(4-methyl-3-oxopiperazin-1-yl)acetamide], the IC50 was less than 1 µM in data set [1], less than 0.1 µM on MET [2] and less than 0.1 µM on MET [3].
Take `O=C(Nc1nc2ccc(Sc3cnc4ncccn34)cc2s1)c1ccccc1` [Example 9, N-[6-(imidazo[1,2-a]pyrimidin-3-ylsulphanyl)-1,3-benzothiazol-2-yl]benzamide]: the melting point is greater than 260 °C. In addition, the IC50 in data set [1] is less than 1 µM. Besides, the IC50 on MET [3] is less than 0.5 µM.
On to `O=C(Nc1nc2ccc(Sc3cnc4ncccn34)cc2s1)C1CC1CN1CCOCC1` (stereo not drawn) [Example 14, (trans-B)-N-[6-(imidazo[1,2-a]pyrimidin-3-ylsulphanyl)-1,3-benzothiazol-2-yl]-2-(morpholin-4-ylmethyl)cyclopropanecarboxamide], for which the IC50 is less than 1 µM in data set [1] and less than 0.1 µM on MET [3].
With `O=C(Nc1nc2ccc([S+]([O-])c3cnc4ncccn34)cc2s1)C1CC1` (stereo not shown) [Example 6, N-[6-(imidazo[1,2-a]pyrimidin-3-ylsulphinyl)-1,3-benzothiazol-2-yl]cyclopropanecarboxamide], the melting point was greater than 260 °C. The IC50 in data set [1] was less than 1 µM. At MET [3], the IC50 is less than 0.5 µM.
With `CN1CCN(CC(=O)Nc2nc3ccc(Sc4cnc5ncccn45)cc3s2)CC1` [Example 10, N-[6-(imidazo[1,2-a]pyrimidin-3-ylsulphanyl)-1,3-benzothiazol-2-yl]-2-(4-methylpiperazin-1-yl)acetamide], the values for the IC50 (in data set [1]; against MET [2]; at MET [3]) were less than 1 µM, less than 0.1 µM and less than 0.1 µM, respectively.
In the case of `NCC(=O)Nc1nc2ccc(Sc3cnc4ncccn34)cc2s1` [Example 12, N-[6-(imidazo[1,2-a]pyrimidin-3-ylsulphanyl)-1,3-benzothiazol-2-yl]glycinamide dihydrochloride], the half-maximal inhibitory concentration (IC50) in data set [1] is less than 1 µM; on MET [3] it was less than 0.5 µM.
With `O=C(Nc1nc2ccc(Sc3cnc4ncc(OC5CCCCC5)cn34)cc2s1)C1CC1` [Example 24, N-(6-{[6-(cyclohexyloxy)imidazo[1,2-a]pyrimidin-3-yl]sulphanyl}-1,3-benzothiazol-2-yl)cyclopropanecarboxamide], the figures for the IC50 (in data set [1]; on MET [2]; at MET [3]) were less than 1 µM, less than 0.1 µM and less than 0.1 µM, respectively.
Consider `O=C(Nc1nc2ccc(Sc3cnc4ncccn34)cc2s1)C1CC1CN1CCOCC1` (stereo not drawn) [Example 13, (trans-A)-N-[6-(imidazo[1,2-a]pyrimidin-3-ylsulphanyl)-1,3-benzothiazol-2-yl]-2-(morpholin-4-ylmethyl)cyclopropanecarboxamide], for which the IC50 in data set [1] is less than 1 µM; against MET [2] it was less than 0.1 µM; on MET [3], less than 0.1 µM.
